Measured values as given in patent US20230167479A1, “RESEARCH INTO ANTIMICROBIAL RESISTANCE BY THE FIELD FLOW FRACTIONATION TECHNIQUE” (UNIVERSITÉ DE LIMOGES, priority 2020, published 2023).
In brackets after ≈: the same amount, converted by molar mass.

Assays:
Assay type in all cases: cell-based
[1] = test system: E. coli strain ATCC 25922; assay: SdFFF elution-profile sensitivity test, protocol of Example 1 / FIG. 1; conditions: significance threshold 10%
Description: The results of the antimicrobial resistance analysis are expected starting 40 hours after the sample was cultured on agar.
(§1) The field-flow fractionation device is set according to patent EP1679124. The device comprises an injection system where the sample is taken, the tubing bringing the sample from the injector to the separation channel via a first rotary joint, the separation channel contained in a centrifugation bowl, the rotation of which is ensured by an electric motor itself controlled manually or via a suitable computer device, thus allowing control of the intensity of the multigravitational field, the tubing bringing the separated species from the channel to the detector via the second rotary joint, and finally the detector.
(§2) Bacterial colonies were incubated in a Mueller-Hinton (MH) culture medium with an inoculum of 0.5 McFarland in the absence or in the presence of antibiotic, for 2 hours at 37° C. and under stirring. The liquid medium MH is the reference medium used for the reference method for determining MIC values, called the dilution method in a liquid medium.
(§3) After incubation for 2 h, the culture medium was centrifuged and then taken up in a volume of 0.5 ml of PBS.
Example 1: Results of resistance tests of the E. coli strain ATCC 25922 to various molecules, using SdFFF according to the present invention. […]

E. coli ATCC EC 25922 = assay: minimum inhibitory concentration; conditions: Escherichia coli, ATCCEC25922; concentration said to correspond to the MIC
[2] = test system: E. coli strain ATCC 25922; assay: SdFFF elution-profile sensitivity test, protocol of Example 2 / FIG. 4; conditions: for percentage of variation in the retention factor PΔR: sensitive strain, 4 mg/ml ampicillin vs control, significance threshold 10%
Description: (§4) The results of the antimicrobial resistance analysis are expected starting 18-26 hours after the sample was cultured on agar.
as §1, §2, §3
(§5) According to the handlings shown in FIG. 5, the calculation of the percentage of variation in the retention factor or PΔR is carried out as follows: ?
(§6) Example 2: A new analysis protocol was established according to FIG. 4, consistent with the clinical implementation of conventional antibiograms, making it possible to reduce to 26 hours post-sampling/isolating the time for obtaining the test results.
(§7) Thus, such assays were carried out directly on bacterial suspensions, obtained from colonies of the E. coli strain ATCC 25922 and ATCC 35218 cultured for 16-24 hours on agar medium, and incubated for 2 hours in the presence or in the absence of antibiotic (Ampicillin, FIGS. 5A/B).

[3] = test system: E. coli strain ATCC 35218; assay: as above; conditions: for percentage of variation in the retention factor PΔR: resistant strain, 4 mg/ml ampicillin vs control, significance threshold 10%
Description: as §4, §1, §2, §3, §5, §6, §7

[4] = 4 mg/ml ampicillin, PΔR compared with 10% threshold

| SMILES | percentage of variation in the retention factor PΔR ([1]; 3 µg/ml of kanamycin vs control) | MIC (E. coli ATCC EC 25922) | PΔR ([1]; 0.03 µg/ml chlortetracycline vs control) | sensitivity/resistance of the strain to the antimicrobial [2, 4] | percentage of variation in the retention factor PΔR [2] | percentage of variation in the retention factor PΔR ([2]; listed as Ampicillin) | sensitivity/resistance of the strain to the antimicrobial [3, 4] | PΔR ([3]; resistant strain incubated with 8 mg/ml ampicillin) | percentage of variation in the retention factor PΔR [3] | percentage of variation in the retention factor PΔR ([3]; listed as Ampicillin) |
| --- | --- | --- | --- | --- | --- | --- | --- | --- | --- | --- |
| NC[C@H]1O[C@H](O[C@H]2[C@H](O)[C@@H](O[C@H]3O[C@H](CO)[C@@H](O)[C@H](N)[C@H]3O)[C@H](N)C[C@@H]2N)[C@H](O)[C@@H](O)[C@@H]1O [kanamycin] | 11.2% | 3 µg/mL (≈ 6.19 µM) |  |  |  |  |  |  |  |  |
| CN(C)[C@@H]1C(O)=C(C(N)=O)C(=O)[C@@]2(O)C(O)=C3C(=O)c4c(O)ccc(Cl)c4[C@@](C)(O)[C@H]3C[C@@H]12 [chlortetracycline, Chlortetracycline] |  | 0.03 µg/mL (≈ 0.0626 µM) | 22% |  |  |  |  |  |  |  |
| CC1(C)S[C@@H]2[C@H](NC(=O)[C@H](N)c3ccccc3)C(=O)N2[C@H]1C(=O)O [ampicillin, Ampicillin] |  |  |  | sensitive | 12.70% | ≈ 13% | resistant | ≈ 7% | 4.50% | ≈ 5% |
